From patent publication US20120196899A1, “METHODS AND PRODUCTS FOR TREATING INFLAMMATION” (Rock Creek Pharmaceuticals, Inc., priority 2010, published 2012)
Values joined by “and” are separate entries in the source; they are usually repeats but may differ in a detail not shown here. Equal entries are not always repeated. “Also recorded” adds a separate entry of the source.

What was measured:
[1] = Physical signs after single i.v. dose (Example 3); format: in vivo, Sprague-Dawley rats; details: anatabine 0.1, 0.75, 1.0 mg/kg single i.v., rats
Experimental: Four aliquots of each dose level formulation were collected and stored at −80° C. The test compound, corresponding dose level, number of animals, and sample collection times for Phase I of the study are shown in Table 3. The test compound, corresponding dose level, number of animals, and sample collection times for Phase II of the study are shown in Table 4. The physical signs of each animal were monitored following administration of the test compound.

Hematology, day 15 = format: in vivo, Sprague-Dawley rats
Excerpt: (§1) On day 15, urine was collected on all surviving animals for urinalysis. The animals were euthanized and bled via cardiac puncture. Blood was collected for hematology, clinical chemistry, and coagulation analysis. Tissues were collected, weighed, and stored in 10% neutral-buffered formalin for possible future analysis.

[2] = Coagulation parameters (aPTT, PT), day 15; format: in vivo, Sprague-Dawley rats
Excerpt: as §1
Individual values for the coagulation parameters activated partial thromboplastin (aPTT) and prothrombin times (PT) for each animal are listed in Table 34 (normal ranges, Table 30). These are summarized in terms of descriptive statistics in Table 25.

Urinalysis, day 15 = format: in vivo, Sprague-Dawley rats
Excerpt: as §1
There were no notable differences between the active treatment groups and controls and the observations are all consistent with those expected for this species.

nAChR α4/β2 = target: T1, nAChR α4/β2 (Homo sapiens, UniProt P17787+P43681); assay: nAChR α4/β2 channel agonist assay (FLIPR membrane potential); format: cell-based; details: 0.3-1000 μM
T1 construct: host or cells: HEK293 cells, transient transfection
T1 sequence (P17787 26-502): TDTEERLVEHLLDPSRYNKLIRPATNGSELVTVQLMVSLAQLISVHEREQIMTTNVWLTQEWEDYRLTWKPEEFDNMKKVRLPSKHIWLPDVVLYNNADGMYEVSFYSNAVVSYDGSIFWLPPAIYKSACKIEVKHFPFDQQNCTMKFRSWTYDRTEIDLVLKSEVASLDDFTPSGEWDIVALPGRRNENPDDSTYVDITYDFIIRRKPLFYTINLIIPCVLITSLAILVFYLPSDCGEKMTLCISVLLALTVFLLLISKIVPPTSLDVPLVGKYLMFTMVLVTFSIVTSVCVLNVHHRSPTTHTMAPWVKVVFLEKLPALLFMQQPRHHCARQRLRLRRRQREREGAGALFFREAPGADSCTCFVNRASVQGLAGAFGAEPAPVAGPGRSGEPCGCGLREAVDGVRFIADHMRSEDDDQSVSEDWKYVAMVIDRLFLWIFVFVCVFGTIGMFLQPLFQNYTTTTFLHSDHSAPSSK
T1 sequence (P43681 29-627): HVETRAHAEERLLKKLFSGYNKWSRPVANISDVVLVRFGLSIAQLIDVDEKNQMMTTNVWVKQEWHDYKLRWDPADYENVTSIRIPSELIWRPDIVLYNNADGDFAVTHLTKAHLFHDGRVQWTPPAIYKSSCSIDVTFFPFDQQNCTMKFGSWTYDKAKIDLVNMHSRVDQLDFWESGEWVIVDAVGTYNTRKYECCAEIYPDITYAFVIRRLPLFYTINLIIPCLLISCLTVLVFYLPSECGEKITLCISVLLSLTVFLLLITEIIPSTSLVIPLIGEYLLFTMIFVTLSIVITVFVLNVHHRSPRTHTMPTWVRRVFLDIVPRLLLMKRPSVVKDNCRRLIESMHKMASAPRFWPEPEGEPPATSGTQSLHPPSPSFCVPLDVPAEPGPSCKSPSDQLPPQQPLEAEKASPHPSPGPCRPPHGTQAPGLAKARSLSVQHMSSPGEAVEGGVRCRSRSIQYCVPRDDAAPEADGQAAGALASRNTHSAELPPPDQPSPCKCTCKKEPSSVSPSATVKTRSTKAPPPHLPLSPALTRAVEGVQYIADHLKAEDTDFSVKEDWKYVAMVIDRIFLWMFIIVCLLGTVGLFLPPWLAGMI
Experimental: (§2) The following three (3) channels were evaluated: • 1. nAChR α3/β4 (encoded by the human CHRNA3 and CHRNB4 gene and stably expressed in CHO cells); • 2. nAChR α4/β2 (CHRNA4 and CHRNB2 gene and transiently expressed in HEK293 cells); and • 3. nAChR α7 (encoded by the human nicotinic α7 gene coexpressed in CHO cells with the chaperone RIC-3 encoded by the human RIC3 gene).
(§3) The ability of each test article to act as an agonist, a positive allosteric modulator or antagonist of three nAChR receptor channels was evaluated in the presence of 0.1 atropine. Both test articles were evaluated for responses on each nAChR channel at eight (8) concentrations: 0.3, 1, 3, 10, 30, 100, 300, and 1000 μM (n=4 for each concentration).
(§4) HEK293 or CHO cells were transiently or stably transfected with the appropriate human ion channel cDNAs. Stable transfectants were selected by coexpression with the antibiotic-resistance gene(s) incorporated into the expression plasmid(s). Selection pressure was maintained by including selection antibiotics in the culture medium. HEK293 cells were cultured in Dulbecco's Modified Eagle Medium/Nutrient Mixture F-12 (D-MEM/F-12) supplemented with 10% fetal bovine serum, 100 U/mL penicillin G sodium, 100 g/mL streptomycin sulfate and appropriate selection antibiotics. CHO cells were cultured in Ham's F-12 supplemented with 10% fetal bovine serum, 100 U/mL penicillin G sodium, 100 g/mL streptomycin sulfate and appropriate selection antibiotics.
(§5) For FLIPR TETRA™ assay, cells were plated in 384-well black wall, flat clear bottom microtiter plates (Type: BD Biocoat Poly-D-Lysine Multiwell Cell Culture Plate) at 20,000 to 30,000 cells per well (384-well plate). Cells were incubated at 37° C. overnight or until the cells reached a sufficient density in the wells (near confluent monolayer) to use in fluorescence assays. For α4β2 assay, cells were incubated at 27° C. for at least 7 hours before use.
(§6) Experiments were performed with either the FLIPR calcium sensitive dye kit (Fluo-8, ABDbioquest, for nAChR α3/β4 and nAChR α7) or FLIPR membrane potential kit (Molecular Devices, for nAChR α4/β2) according to the manufacturer's instructions. Briefly, cells were incubated with 201 dye for 30 min at 37° C. After dye loading period, for the agonist assay, 5 μl of the test, vehicle, or control articles at concentration of 5 times of final concentration were applied to the cells without stimulation. For the positive allosteric modulation (PAM) and antagonist assay, after test article application, the cells were stimulated with either low dose (for PAM) or high dose (for antagonist) of Ach.
(§7) Concentration-response data was fitted to a Hill equation of the following form:
(§8) where Base is the response at low concentrations of test article, Max is the maximum response at high concentrations, xhalf is the EC50 or IC50, the concentration of test article producing either half-maximal activation or inhibition, and rate is the Hill coefficient. Nonlinear least squares fits were made assuming a simple one-to-one binding model.
The ability of each test article to act as an agonist of the nAChR carried out in the absence of the positive control agonist. The signal elicited in the presence of the positive control agonist (30 μM Ach) was set to 100% and the signal from the vehicle control (HBPS) was set to 0%. Values were considered significant (bold font) if the test article mean was three or more standard deviations above from the vehicle control mean.

nAChR α3/β4 = nAChR α3/β4 (Homo sapiens, UniProt P30926+P32297); assay: nAChR α3/β4 channel agonist assay (FLIPR, Fluo-8 calcium); details: 0.3-1000 μM; maximal stimulation not achieved
nAChR α3/β4, sequence (P32297 32-505): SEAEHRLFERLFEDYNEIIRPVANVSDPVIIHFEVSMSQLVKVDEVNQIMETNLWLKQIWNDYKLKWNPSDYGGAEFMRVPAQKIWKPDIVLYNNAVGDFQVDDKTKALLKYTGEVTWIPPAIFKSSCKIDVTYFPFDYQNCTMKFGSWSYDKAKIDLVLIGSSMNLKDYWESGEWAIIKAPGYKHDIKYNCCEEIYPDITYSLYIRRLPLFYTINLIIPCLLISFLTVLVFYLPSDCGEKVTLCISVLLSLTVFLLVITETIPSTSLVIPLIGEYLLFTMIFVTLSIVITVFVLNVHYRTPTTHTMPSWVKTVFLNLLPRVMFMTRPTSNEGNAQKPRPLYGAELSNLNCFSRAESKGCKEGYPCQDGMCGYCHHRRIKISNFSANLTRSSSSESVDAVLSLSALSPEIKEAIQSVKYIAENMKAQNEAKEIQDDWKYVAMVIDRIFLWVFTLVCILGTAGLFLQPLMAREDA
nAChR α3/β4, sequence (P30926 22-498): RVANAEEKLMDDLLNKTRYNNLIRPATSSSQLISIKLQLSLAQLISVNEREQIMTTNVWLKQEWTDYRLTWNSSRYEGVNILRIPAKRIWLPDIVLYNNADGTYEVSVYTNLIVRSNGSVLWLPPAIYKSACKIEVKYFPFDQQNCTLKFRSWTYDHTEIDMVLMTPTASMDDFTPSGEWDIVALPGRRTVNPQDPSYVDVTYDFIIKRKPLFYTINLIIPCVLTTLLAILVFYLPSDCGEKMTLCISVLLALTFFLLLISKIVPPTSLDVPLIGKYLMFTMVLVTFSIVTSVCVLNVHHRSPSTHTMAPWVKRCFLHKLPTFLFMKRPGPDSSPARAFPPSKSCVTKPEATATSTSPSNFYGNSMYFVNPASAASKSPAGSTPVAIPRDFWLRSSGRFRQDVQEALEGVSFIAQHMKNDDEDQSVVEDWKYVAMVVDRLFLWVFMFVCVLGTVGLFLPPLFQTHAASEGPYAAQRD
Experimental: as §2, §3, §4, §5, §6, §7, §8
The ability of both test articles to act as an agonist of nAChR carried out in the absence of the positive control agonist. The signal elicited in the presence of the positive control agonist, 30 μM acetylcholine (Ach) was set to 100% and the signal from the vehicle control, HEPES-buffered physiological saline (HBPS) solution was set to 0%.

[3] = anatabine 0.75 mg/kg, individual animals C1-C10 (M, F)
[4] = anatabine 0.1 mg/kg, male rats, individual animals
[5] = anatabine 0.75 mg/kg, female rats, individual animals
[6] = anatabine 0.75 mg/kg, male rats, individual animals
[7] = Anatabine dose 0.1 mg/kg, individual animals B1-B10 (M and F)
[8] = Anatabine dose 0.1 mg/kg, individual animals B1-B10 (M and F), 0.1 mg/kg
[9] = Anatabine dose 0.75 mg/kg, individual animals C1-C10 (M and F)
[10] = Anatabine dose 0.75 mg/kg, individual animals C1-C10 (M and F), 0.75 mg/kg

C1=CCC(c2cccnc2)NC1 (racemic) [Anatabine, 1,2,3,6-tetrahydro-[2,3′]bipyridinyl]
physical signs [1]: no obvious adverse signs were observed | MCH (Hematology, day 15; anatabine 0.1 mg/kg, individual animals B1-B10 (M, F)): 21.9 UUG and 21.8 UUG | MCH (Hematology, day 15; [3]): 20.3 UUG and 21 UUG and 22 UUG and 19.9 UUG | MCHC (Hematology, day 15; [3]): 34.2% and 34.3% | EOSINOPHIL (Hematology, day 15; female, 0.1 mg/kg, group mean): 0.0% | HCT (Hematology, day 15; female, 0.1 mg/kg, group mean): 46.4% | LYMPHOCYTE (Hematology, day 15; female, 0.1 mg/kg, group mean): 90.2% | MCHC (Hematology, day 15; female, 0.1 mg/kg, group mean): 33.7% | MCV (Hematology, day 15; female, 0.1 mg/kg, group mean): 60.0 fL | MONOCYTE (Hematology, day 15; female, 0.1 mg/kg, group mean): 1.8% | NEUTROPHIL SEG (Hematology, day 15; female, 0.1 mg/kg, group mean): 8.0% | PLATELET COUNT (Hematology, day 15; female, 0.1 mg/kg, group mean): 997300 µL⁻¹ | RBC (Hematology, day 15; female, 0.1 mg/kg, group mean): 7.8e+06 µL⁻¹ | RETICULOCYTE COUNT (Hematology, day 15; female, 0.1 mg/kg, group mean): 4.5% | WBC (Hematology, day 15; female, 0.1 mg/kg, group mean): 9300 µL⁻¹ | EOSINOPHIL (Hematology, day 15; female, 0.75 mg/kg, group mean): 0.0% | HCT (Hematology, day 15; female, 0.75 mg/kg, group mean): 45.2% | HGB (Hematology, day 15; female, 0.75 mg/kg, group mean): 15.4 g/dL | LYMPHOCYTE (Hematology, day 15; female, 0.75 mg/kg, group mean): 90.6% | MCV (Hematology, day 15; female, 0.75 mg/kg, group mean): 59.8 fL | MONOCYTE (Hematology, day 15; female, 0.75 mg/kg, group mean): 0.8% | NEUTROPHIL SEG (Hematology, day 15; female, 0.75 mg/kg, group mean): 8.6% | PLATELET COUNT (Hematology, day 15; female, 0.75 mg/kg, group mean): 1.2696e+06 µL⁻¹ | RBC (Hematology, day 15; female, 0.75 mg/kg, group mean): 7.5e+06 µL⁻¹ | RETICULOCYTE COUNT (Hematology, day 15; female, 0.75 mg/kg, group mean): 3.3% | WBC (Hematology, day 15; female, 0.75 mg/kg, group mean): 10300 µL⁻¹ | mean corpuscular volume (MCV) and mean corpuscular hemoglobin (MCH) (Hematology, day 15; females, anatabine […], nicotine 0.75 mg/kg single i.v.): small, but statistically significant decreases | EOSINOPHIL (Hematology, day 15; male, 0.1 mg/kg, group mean): 0.2% | HCT (Hematology, day 15; male, 0.1 mg/kg, group mean): 47.1% | HGB (Hematology, day 15; male, 0.1 mg/kg, group mean): 15.8 g/dL | LYMPHOCYTE (Hematology, day 15; male, 0.1 mg/kg, group mean): 89.2% | MCV (Hematology, day 15; male, 0.1 mg/kg, group mean): 63.4 fL | MONOCYTE (Hematology, day 15; male, 0.1 mg/kg, group mean): 2.0% | NEUTROPHIL SEG (Hematology, day 15; male, 0.1 mg/kg, group mean): 8.6% | PLATELET COUNT (Hematology, day 15; male, 0.1 mg/kg, group mean): 1.2486e+06 µL⁻¹ | RBC (Hematology, day 15; male, 0.1 mg/kg, group mean): 7.4e+06 µL⁻¹ | RETICULOCYTE COUNT (Hematology, day 15; male, 0.1 mg/kg, group mean): 5.5% | WBC (Hematology, day 15; male, 0.1 mg/kg, group mean): 15600 µL⁻¹ | EOSINOPHIL (Hematology, day 15; male, 0.75 mg/kg, group mean): 0.0% | HCT (Hematology, day 15; male, 0.75 mg/kg, group mean): 45.8% | LYMPHOCYTE (Hematology, day 15; male, 0.75 mg/kg, group mean): 88.8% | MCHC (Hematology, day 15; male, 0.75 mg/kg, group mean): 34.0% | MCV (Hematology, day 15; male, 0.75 mg/kg, group mean): 61.4 fL | MONOCYTE (Hematology, day 15; male, 0.75 mg/kg, group mean): 1.4% | NEUTROPHIL SEG (Hematology, day 15; male, 0.75 mg/kg, group mean): 9.8% | PLATELET COUNT (Hematology, day 15; male, 0.75 mg/kg, group mean): 1.3258e+06 µL⁻¹ | RBC (Hematology, day 15; male, 0.75 mg/kg, group mean): 7.5e+06 µL⁻¹ | RETICULOCYTE COUNT (Hematology, day 15; male, 0.75 mg/kg, group mean): 4.4% | WBC (Hematology, day 15; male, 0.75 mg/kg, group mean): 12100 µL⁻¹ | ACTIVE PARTIAL THROMBOPLASTIN TIME ([2]; anatabine 0.1 mg/kg, female rats, individual animals): 31.1 s and 34.2 s and 26 s and 28.9 s | ACTIVE PARTIAL THROMBOPLASTIN TIME [2, 4]: 36.4 s and 28.9 s and 32 s | PROTHROMBIN TIME [2, 4]: 13.4 s and 12.5 s | ACTIVE PARTIAL THROMBOPLASTIN TIME [2, 5]: 32.5 s and 32.7 s and 38.2 s | PROTHROMBIN TIME [2, 5]: 23.8 s | ACTIVE PARTIAL THROMBOPLASTIN TIME [2, 6]: 39.7 s and 43.9 s and 50.4 s | PROTHROMBIN TIME [2, 6]: 17.9 s | ACTIVATED PARTIAL THROMBOPLASTIN TIME ([2]; female, 0.1 mg/kg, group mean): 29.4 s | ACTIVATED PARTIAL THROMBOPLASTIN TIME ([2]; female, 0.75 mg/kg, group mean): 33.3 s | PROTHROMBIN TIME ([2]; female, 0.75 mg/kg, group mean): 14.1 s | PROTHROMBIN TIME ([2]; male, 0.1 mg/kg, group mean): 12.8 s | ACTIVATED PARTIAL THROMBOPLASTIN TIME ([2]; male, 0.75 mg/kg, group mean): 38.7 s | PROTHROMBIN TIME ([2]; male, 0.75 mg/kg, group mean): 13.3 s | Urinalysis VOLUME (Urinalysis, day 15; Anatabine dose 0.1 mg/kg, animal B9 (F), unit not given): 0.5 | Urinalysis CLARITY (Urinalysis, day 15; [7]): HAZY | Urinalysis COLOR (Urinalysis, day 15; [7]): YELLOW | Urinalysis GLUCOSE (Urinalysis, day 15; [7]): NEGATIVE | Urinalysis UROBILINOGEN (Urinalysis, day 15; [7]): NORMAL | Urinalysis VOLUME (Urinalysis, day 15; [7]): <0.5 mL | Urinalysis BILIRUBIN (Urinalysis, day 15; [8]): NEGATIVE | Urinalysis BLOOD (Urinalysis, day 15; [8]): TRACE; also recorded: NEGA- | Urinalysis KETONES (Urinalysis, day 15; [8]): NEGATIVE | Urinalysis PROTEIN (Urinalysis, day 15; [8]): TRACE; also recorded: NEGA- | Urinalysis SPEC GRAVITY (Urinalysis, day 15; [8]): 1.027 (2×) and 1.039 (2×) and 1.048 and 1.036 and 1.045 and 1.017 | Urinalysis pH (Urinalysis, day 15; [8]): 8.5 and 7.5 (4×) and 7 (2×) and 8 | Urinalysis CLARITY (Urinalysis, day 15; [9]): HAZY | Urinalysis COLOR (Urinalysis, day 15; [9]): YELLOW | Urinalysis GLUCOSE (Urinalysis, day 15; [9]): NEGATIVE | Urinalysis UROBILINOGEN (Urinalysis, day 15; [9]): NORMAL | Urinalysis BILIRUBIN (Urinalysis, day 15; [10]): NEGATIVE | Urinalysis BLOOD (Urinalysis, day 15; [10]): TRACE; also recorded: NEGA- | Urinalysis KETONES (Urinalysis, day 15; [10]): NEGATIVE | Urinalysis PROTEIN (Urinalysis, day 15; [10]): TRACE | Urinalysis SPEC GRAVITY (Urinalysis, day 15; [10]): 1.05 and 1.051 and 1.043 and 1.049 and 1.016 and 1.039 and 1.036 and 1.014 | Urinalysis VOLUME (Urinalysis, day 15; [10]): <0.5 mL (8×) and <0.25 mL | Urinalysis pH (Urinalysis, day 15; [10]): 7 (3×) and 8 (3×) and 7.5 and 6 | agonist activity (nAChR α4/β2): displays full agonist activity | agonist activity (nAChR α3/β4): showed agonist activity
